Data: patent US8133692B2, “Methods of predicting responsiveness to chemotherapeutic agents and selecting treatments” (University of South Florida, priority 2005, dated 2012)
e = 2'-O-(2-methoxyethyl) (MOE); d = 2'-deoxy (DNA)

Tests used:
Assay type in all cases: cell-based, human
[1] = test system: phosphorylated Stat3; test: Western blot for phosphorylated Stat3 after gefitinib in NSCLC cells; conditions: 24 hours
Experimental: (§1) Protein expression analysis. Cell lysates were normalized for total protein content (50 μg) and subjected to SDS-PAGE as described by Song et al., Oncogene 22:4150-65 (2003). Primary antibodies used in these studies consisted of Stat3 (Transduction Laboratories; BD Biosciences, Mississauga, Ontario, Canada), pStat3 Y705 (Cell Signaling Technology), cleaved poly (ADP-ribose) polymerase (Cell Signaling Technology, Beverly, Mass.), Mcl-1 (Santa Cruz Biotechnology, Santa Cruz, Calif.), Bcl-2 (DAKO, Carpinteria, Calif.), Bcl-xL (PharMingen, San Diego, Calif.), and β-actin (Sigma-Aldrich, Milwaukee, Wis.). Detection of proteins was accomplished using horseradish peroxidase-conjugated secondary antibodies and enhanced chemiluminescence purchased through Amersham Biosciences (Pittsburgh, Pa.).

[2] = test system: Stat3; test: IL-6 stimulation: EMSA of Stat3 DNA-binding activity; conditions: serum-starved MDA-MB-435s cells; IL-6 20 or 30 ng/mL; within 30 minutes
Experimental: Nuclear extract preparation and EMSA. Nuclear extracts were prepared as previously described by Yu et al., Science 269:81-83 (1995), which is incorporated herein by reference, by high-salt extraction into 30 to 70 μL buffer [20 mmol/L HEPES (pH 7.9), 420 mmol/L NaCl, 1 mmol/L EDTA, 20% glycerol, 20 mmol/L NaF, 1 mmol/L Na3VO4, 1 mmol/L Na4P2O7, 1 mmol/L DTT, 0.5 mmol/L phenylmethylsulfonyl fluoride, 0.1 μmol/L aprotinin, 1 μmol/L leupeptin, and 1 μmol/L antipain]. For EMSA, 5 μg of total nuclear protein were used for each lane. EMSA was done using a ^32P-labeled oligonucleotide probe containing a high-affinity cis-inducible element (hSIE, m67 variant) derived from the c-fos gene promoter (sense strand 5′[…]-3′) (SEQ ID NO: 3) that binds activated Stat3 proteins. Following incubation of radiolabeled probes with nuclear extracts, protein-DNA complexes were resolved by nondenaturing PAGE and detected by autoradiography. Stat3 protein was supershifted in the EMSA by preincubation with Stat3 antibody (C-20X, Santa Cruz Biotechnology, Santa Cruz, Calif.).
To investigate whether cytokine-induced Stat3 activity correlates with increased Survivin expression in breast cancer cells, cells were stimulated with IL-6 to increase Stat3 activation. […]

[3] = test system: MDA-MB-435s cells; test: IL-6 stimulation: Western blot for phosphor-Stat3 and Survivin; conditions: IL-6 treatment, after 48 hours
Experimental: (§2) Western blot analyses. Cells were lysed in a buffer containing 10 mmol/L Tris-HCl (pH 8.0), 150 mmol/L NaCl, 1% NP40, 0.5% sodium deoxycholate, 0.1% SDS, 1 mmol/L EDTA (pH 8.0), 2 mmol/L phenylmethylsulfonyl fluoride, 2 μg/mL aprotinin, 2 μg/mL leupeptin, and 1 mmol/L Na3VO4. For Western blot analyses, 30 μg of total extracted proteins were applied per lane before SDS-PAGE. Following transfer to nitrocellulose membranes, protein expression levels were detected using polyclonal anti-poly-(ADP-ribose) polymerase antibodies (Cell Signaling Technology, Beverly, Mass.). The expression of β-actin (Sigma-Aldrich, St. Louis, Mo.) was used as a normalization control for protein loading.
To investigate whether cytokine-induced Stat3 activity correlates with increased Survivin expression in breast cancer cells, cells were stimulated with IL-6 to increase Stat3 activation. For IL-6 stimulation, cells were serum-starved (DMEM supplemented with 0.1% fetal bovine serum) for 18 hours before IL-6 treatment (20 or 30 ng/mL in DMEM) for 30 minutes (EMSA) or 48 hours (Western blot analysis). Nuclear extracts and cell lysates were prepared for EMSA and Western blot analysis, respectively, as described above.

[4] = test system: H1650, H1975 and H1299 cells; test: Western blot for Stat3, cleaved PARP and Bcl-2 family proteins after antisense Stat3 in NSCLC cells
Experimental: as §1
To determine if Stat3 plays a role in survival in EGFR mutant cells, antisense Stat3 oligonucleotides were used to down-regulate Stat3 as described above. […] Levels of the Bcl-2 family proteins Bcl-xL, Mcl-1, and Bcl-2 were reduced in cells treated with antisense Stat3 consistent with the known role of Stat3 in regulating these proteins (FIG. 9E).

[5] = test system: Survivin; test: RNase protection assay and Western blot for Survivin after Stat3 antisense
Experimental: RNase protection assay. Total RNA was isolated from MDA-MB-435s cells using the RNAeasy mini kit (Qiagen, Valencia, Calif.). RNase protection assays were carried out with the Riboquant hStress-1 template set containing Bcl-xL and Mcl-1 probes or custom-made multiprobe templates containing Stat3 probes (BD PharMingen, San Diego, Calif.). Briefly, the multiprobe templates were synthesized by in vitro transcription with incorporation of […] and purified on Quick Spin RNA columns (Roche Applied Science, Indianapolis, Ind.). Labeled probe (1×10^6 cpm) was hybridized with 10 μg of total RNA through a temperature gradient of 90° C. to 56° C. over a 16-hour period. […]
Western blot analyses. […] Following transfer to nitrocellulose membranes, protein expression levels were detected using polyclonal anti-poly-(ADP-ribose) polymerase antibodies (Cell Signaling Technology, Beverly, Mass.). […]
The microarray data were validated using an RNase protection assay using a Survivin probe (BD PharMingen, San Diego, Calif.) as described above. […] Protein expression levels were detected using polyclonal anti-Stat3 (Santa Cruz Biotechnology, Santa Cruz, Calif.) and polyclonal anti-Survivin (Alpha Diagnostics International, San Antonio, Tex.) antibodies.

[6] = test system: Stat3; test: EMSA of Stat3 DNA-binding activity after antisense transfection; conditions: MDA-MB-435s cells, 24 and 36 hours after transfection
Experimental: (§3) The human breast cancer cell line MDA-MB-435s, harbors activated Stat3. The cells were grown in DMEM supplemented with 10% fetal bovine serum, 100 units/mL penicillin, and 100 μg/mL streptomycin. The cells were transfected with Stat3 antisense or mismatch oligonucleotides using Lipofectamine-Plus as described by the supplier (Life Technologies, Grand Island, N.Y.). The Stat3 antisense (5′[…]-3′) (SEQ ID NO: 1) and control mismatch (5′[…]-3′) (SEQ ID NO: 2) oligonucleotides were synthesized using phosphorothioate chemistry. To increase stability, oligonucleotides were synthesized with 2′-O-methoxyethyl modification of the five or three underlined terminal nucleotides. The final concentration for Stat3 antisense and control mismatch oligonucleotides was […]. Twenty-four and 36 hours after transfection, the mRNA levels and DNA-binding activities of Stat3 were measured by RNase protection and electrophoretic mobility shift (EMSA) assays, respectively.
Nuclear extract preparation and EMSA. […] Following incubation of radiolabeled probes with nuclear extracts, protein-DNA complexes were resolved by nondenaturing PAGE and detected by autoradiography. […]

[7] = test system: MDA-MB-435s and MDA-MB-231 cells; test: Cellular viability by trypan blue exclusion assay; conditions: after 24 or 48 hours of incubation
Experimental: (§4) In situ terminal deoxyribonucleotidyl transferase-mediated dUTP nick end labeling and cellular proliferation assays. MDA-MB-435s and MDA-MB-231 cells were transfected with antisense or control mismatch oligonucleotides. After 48 hours, cells were labeled for apoptotic DNA strand breaks by terminal deoxyribonucleotidyl transferase-mediated dUTP nick end labeling (TUNEL) reaction using an in situ cell death detection assay (Roche Applied Science, Indianapolis, Ind.) according to the instructions of the supplier. TUNEL-positive nuclei were counted and the apoptotic index was expressed as the number of apoptotic cells in one microscopic field. To determine cellular viability, cells were harvested by trypsinization and counted by trypan blue exclusion assay at 24 and 48 hours after transfection. All experiments were done in triplicate.

[8] = test system: MDA-MB-435s cells; test: Microarray gene expression profiling after blockade of Stat3; conditions: 24 hours
Experimental: Microarray gene expression profiling analyses were completed to assess the gene expression changes associated with blockade of Stat3 activity. Five micrograms of total RNA collected from MDA-MB-435s cells treated with antisense or control mismatch oligonucleotides for 24 hours served as the mRNA sources for microarray analysis. The poly(A) mRNA was specifically converted to cDNA and then amplified and labeled with biotin following the procedure initially described by Van Gelder et al., Proc. Natl. Acad. Sci. USA 87:1663-67 (1990) which is incorporated herein by reference. Hybridization with the biotin-labeled DNA, staining, and scanning of the microarray chips followed the prescribed procedure outlined in the Affymetrix technical manual.
The oligonucleotide probe arrays were Human Genome U133A chips (Affymetrix, Santa Clara, Calif.). Scanned output files were visually inspected for hybridization artifacts and then analyzed using Affymetrix Microarray MAS 5.0 software. The MAS 5.0 software identifies the increased and decreased genes between any two samples with a statistical algorithm that assesses the behavior of oligonucleotide probe sets designed to detect the same gene. Probe sets that yielded a change at P<0.0045 were identified as changed (increased or decreased). In addition, the data were processed using robust multiarray analysis as described by Bolstad et al., Bioinformatics 19:185-93 (2003) which is incorporated herein by reference in its entirety. […] Empirical estimates of the null distribution were determined using permutation analysis, thereby controlling the number of false positives. The significance analysis of microarrays (as described by Tusher et al., Proc Natl Acad Sci USA 98:5116-21 (2001), which is incorporated herein by reference) implements this approach to address the multiple testing problem and was also applied to the data analysis.

[9] = test system: MDA-MB-435s and MDA-MB-231 cells; test: Apoptosis assays (microscopy, in situ TUNEL, PARP cleavage Western blot) in breast cancer cells
Experimental: To assess whether apoptosis was occurring in the cells after blocking of Stat3 the cells were examined microscopically and a TUNEL assay and poly-(ADP)-ribose polymerase (PARP) cleavage assay were performed.
as §4, §2

[10] = test system: Stat3 mRNA; test: RNase protection assay of Stat3 mRNA after transfection with antisense oligonucleotides; conditions: MDA-MB-435s cells; compared with the mismatch oligonucleotides; 24 and 36 hours after transfection
Experimental: as §3
RNase protection assay. Total RNA was isolated from MDA-MB-435s cells using the RNAeasy mini kit (Qiagen, Valencia, Calif.). RNase protection assays were carried out with the Riboquant hStress-1 template set containing Bcl-xL and Mcl-1 probes or custom-made multiprobe templates containing Stat3 probes (BD PharMingen, San Diego, Calif.). […]

[11] = Survivin antisense 300 nmol/L, MDA-MB-435s and MDA-MB-231 cells

COc1cc2ncnc(Nc3ccc(F)c(Cl)c3)c2cc1OCCCN1CCOCC1 [gefitinib, Gefitinib]
phosphorylated Stat3 ([1]; H1650 cells with the L746-p753 deletion mutation in EGFR): no effect on phosphorylated Stat3
phosphorylated Stat3 ([1]; H1975 cells): no effect on phosphorylated Stat3
phosphorylated Stat3 ([1]; H3255 cells with the L858R mutation in EGFR, increasing doses): complete inhibition of phosphorylated Stat3

IL-6: interleukin-6, cytokine used to stimulate cells and increase Stat3 activation
Stat3 DNA-binding activity (EMSA) [2]: increases Stat3 DNA-binding activity
Survivin protein expression (Western blot) [3]: induced
phosphor-Stat3 levels (Western blot) [3]: induced

Stat3 antisense: Stat3 antisense 5′GCTCCAGCATCTGCTGCTTC-3′ (SEQ ID NO: 1), phosphorothioate chemistry with 2′-O-methoxyethyl modification of terminal nucleotides (sugars from the 5' end e5 d10 e5, all phosphorothioate, methylation of C not given here; listed as Homo sapiens)
apoptosis ([4]; H1299 cells, despite Stat3 knock-down): No apoptosis was observed
Stat3 protein levels ([4]; H1650 and H1975 cells): decreased Stat3 protein levels
cleavage of poly(ADP-ribose) polymerase indicative of apoptosis ([4]; H1650 and H1975 cells): cleavage of poly(ADP-ribose) polymerase
Levels of the Bcl-2 family proteins Bcl-xL, Mcl-1, and Bcl-2 ([4]; cells treated with antisense Stat3 vs mismatch control): reduced
mRNA expression of Survivin (RNase protection assay) ([5]; antisense oligonucleotide-treated breast cancer cells): decrease in mRNA expression of Survivin
Survivin protein expression (Western blot) ([5]; breast cancer cells): decreased Survivin expression
Stat3 DNA-binding activity [6]: significant decrease in Stat3 DNA-binding activity
growth inhibition by trypan blue exclusion [7]: induced significant growth inhibition
expression of Bcl-2 family proteins by microarray analysis [8]: did not reveal consistent decreases
expression of other IAP family members (X-linked IAP, cellular IAP-1, cellular IAP-2) by microarray [8]: no change
expression of Survivin by microarray analysis ([8]; antisense vs control mismatch): found to be diminished
apoptosis by in situ TUNEL assay ([9]; Stat3 antisense, 48 hours): occurrence of apoptosis was confirmed
cleavage of poly-(ADP-ribose) polymerase ([9]; Stat3 antisense, 48 hours after treatment): cleavage of poly-(ADP-ribose) polymerase
vacuolated cells and cellular debris (light microscopy) ([9]; incubation for up to 48 hours): marked increase in vacuolated cells and cellular debris
Stat3 mRNA expression [10]: diminished Stat3 mRNA expression

antisense oligonucleotides directed against Survivin: Antisense oligonucleotides directed against Survivin 5′-CCCAGCCTTCCAGCTCCTTG-3′ (SEQ ID NO: 4), synthesized using phosphorothioate chemistry (sugars from the 5' end e3 d14 e3, all phosphorothioate, methylation of C not given here; listed as Homo sapiens)
Poly-(ADP-ribose) polymerase cleavage [9, 11]: evident
in situ TUNEL staining [9, 11]: evident
